ChEMBL document CHEMBL4483862, “Open-source discovery of chemical leads for next-generation chemoprotective antimalarials” (2018)

System: Plasmodium berghei
Experiment: Luciferase/luciferin-expressing antifolate-resistant parasites were used to infect a culture of HepG2 cells that were pre-incubated with compounds. Infected hepatocytes emit light due to the luciferase reaction. Assay results are presented as the percent inhibition of light emission compared to control. […]
Assay type: functional
Conditions: sporozoite; for IC90: read-out: LUCIFERASE INFECTION ASSAY - IC90

Row | SMILES | IC90 | further results
1 | O=c1c(Cl)c(Cl)cnn1Cc1nnc(-c2ccc(Cl)cc2)o1 | > 10 µM | IC50 (FFLUC_HILL_SLOPE 3.65, FFLUC_R_SQUARED 0.9, HEPG2TOX_HILL_SLOPE 4.48, HEPG2TOX_R_SQUARED 0.522, PBLUC_HILL_SLOPE 7.32, PBLUC_R_SQUARED 0.182, read-out: LUCIFERASE INFECTION ASSAY - IC50): 7.44 µM
2 | CCCS(=O)(=O)c1cnc(C2COc3ccccc3O2)nc1N (stereo not given) | 1.07 µM | IC50 (FFLUC_HILL_SLOPE 3.81, FFLUC_R_SQUARED 0.729, PBLUC_HILL_SLOPE 0.615, PBLUC_R_SQUARED 0.774, read-out: LUCIFERASE INFECTION ASSAY - IC50): 0.0301 µM
3 | COc1ccc(CN2C(=O)c3ccccc3C(/C=N\OCc3ccc(F)cc3)C2=O)cc1 (stereo not given) | > 7.63 µM | IC50 (FFLUC_HILL_SLOPE 3.53, FFLUC_R_SQUARED 0.589, read-out: LUCIFERASE INFECTION ASSAY - IC50): > 7.63 µM
4 | COC(=O)c1ccc(CSc2nnc(NC(=O)c3ccccc3[N+](=O)[O-])s2)cc1 | 0.0537 µM | IC50 (FFLUC_HILL_SLOPE 3.72, FFLUC_R_SQUARED 0.492, PBLUC_HILL_SLOPE 2.08, PBLUC_R_SQUARED 0.667, read-out: LUCIFERASE INFECTION ASSAY - IC50): 0.0187 µM
5 | Cc1cc(-n2c(C)cc(C(=O)Cn3ncc(Cl)c(Cl)c3=O)c2C)ccc1Br | 5.84 µM | IC50 (FFLUC_HILL_SLOPE 3.61, FFLUC_R_SQUARED 0.511, HEPG2TOX_HILL_SLOPE 4.93, HEPG2TOX_R_SQUARED 0.864, PBLUC_HILL_SLOPE 65.8, PBLUC_R_SQUARED 0.0361, read-out: LUCIFERASE INFECTION ASSAY - IC50): 5.65 µM
6 | COC(=O)c1c(NC(=O)c2ccoc2)c2cc(NCC3CC=CCC3)cnc2n1CC(C)C (stereo not given) | > 7.32 µM | IC50 (FFLUC_HILL_SLOPE 3.67, FFLUC_R_SQUARED 0.106, read-out: LUCIFERASE INFECTION ASSAY - IC50): > 7.32 µM
7 | Cc1cc(C2=NNC(=CN3CCc4sccc4C3c3cccs3)O2)c(C)o1 (stereo not given) | > 10 µM | IC50 (FFLUC_HILL_SLOPE 3.77, FFLUC_R_SQUARED 0.256, read-out: LUCIFERASE INFECTION ASSAY - IC50): > 10 µM
8 | CNC(=O)c1ccc(CN(C2CC2)S(=O)(=O)c2cc([N+](=O)[O-])cc(C)c2C)cc1 | > 10 µM | IC50 (FFLUC_HILL_SLOPE 3.59, FFLUC_R_SQUARED 0.192, PBLUC_HILL_SLOPE 1.6, PBLUC_R_SQUARED 0.527, read-out: LUCIFERASE INFECTION ASSAY - IC50): 5.04 µM
9 | Cc1cc(C)c(N2C(=O)C=CC2=O)c(C)c1 | 13.1 µM | IC50 (FFLUC_HILL_SLOPE 3.47, FFLUC_R_SQUARED 0.6, PBLUC_HILL_SLOPE 4.24, PBLUC_R_SQUARED 0.739, read-out: LUCIFERASE INFECTION ASSAY - IC50): 7.79 µM
10 | O=C(Nc1ccc(Oc2ccc([N+](=O)[O-])c3cnccc23)cc1)c1ccccc1 | > 10 µM | IC50 (FFLUC_HILL_SLOPE 3.45, FFLUC_R_SQUARED 0.514, PBLUC_HILL_SLOPE 3.38, PBLUC_R_SQUARED 0.0773, read-out: LUCIFERASE INFECTION ASSAY - IC50): 7.36 µM
11 | Cc1ccc(C(=O)NCc2nsc(=N/C(=N\c3ccccc3)c3ccccc3)n2Cc2ccccc2)cc1 | > 10 µM | IC50 (FFLUC_HILL_SLOPE 3.57, FFLUC_R_SQUARED 0.485, HEPG2TOX_HILL_SLOPE 6.57, HEPG2TOX_R_SQUARED 0.579, PBLUC_HILL_SLOPE 15.6, PBLUC_R_SQUARED 0.234, read-out: LUCIFERASE INFECTION ASSAY - IC50): 8.74 µM
12 | CN(CC(=O)Nc1nc(C23CC4CC(CC(C4)C2)C3)cs1)S(=O)(=O)c1cccs1 | 3.45 µM | IC50 (FFLUC_HILL_SLOPE 3.68, FFLUC_R_SQUARED 0.43, PBLUC_HILL_SLOPE 112, PBLUC_R_SQUARED 0.327, read-out: LUCIFERASE INFECTION ASSAY - IC50): 3.38 µM
13 | Cc1ccc2c(c1)/C(=N\NC(=O)c1nc(Cl)c(Cl)c(N)c1Cl)C(=O)N2 | > 10 µM | IC50 (FFLUC_HILL_SLOPE 3.8, FFLUC_R_SQUARED 0.785, read-out: LUCIFERASE INFECTION ASSAY - IC50): > 10 µM
14 | Cc1ccc(-c2csc(NC(=O)C3CCN(c4ncnc5sc(C)c(C)c45)CC3)n2)cc1 | 1.74 µM | IC50 (FFLUC_HILL_SLOPE 3.71, FFLUC_R_SQUARED 0.648, HEPG2TOX_HILL_SLOPE 2.17, HEPG2TOX_R_SQUARED 0.62, PBLUC_HILL_SLOPE 8.52, PBLUC_R_SQUARED 0.61, read-out: LUCIFERASE INFECTION ASSAY - IC50): 1.35 µM
15 | Cc1cccc(Cn2nc(C(C)(C)C)cc2C(=O)Nc2ccc(C(C)(C)C)cc2)c1 | > 8.18 µM | IC50 (FFLUC_HILL_SLOPE 3.48, FFLUC_R_SQUARED 0.696, read-out: LUCIFERASE INFECTION ASSAY - IC50): > 8.18 µM
16 | O=C1COc2ccc(-c3cs/c(=N\CCc4ccccc4)n3/N=C/c3ccc4ncccc4c3)cc2N1 | > 10 µM | IC50 (FFLUC_HILL_SLOPE 3.55, FFLUC_R_SQUARED 0.719, HEPG2TOX_HILL_SLOPE 3.57, HEPG2TOX_R_SQUARED 0.945, read-out: LUCIFERASE INFECTION ASSAY - IC50): > 10 µM
17 | COCCNc1ccnc2c(-c3ccccc3Oc3ccccc3)cnn12 | > 9.16 µM | IC50 (FFLUC_HILL_SLOPE 3.47, FFLUC_R_SQUARED 0.0365, PBLUC_HILL_SLOPE 0.975, PBLUC_R_SQUARED 0.706, read-out: LUCIFERASE INFECTION ASSAY - IC50): 3.91 µM
18 | CCOc1ccc(NC(=S)N/N=C2/C(=O)Nc3c(Cl)cc(Cl)cc32)cc1 | 1.16 µM | IC50 (FFLUC_HILL_SLOPE 3.63, FFLUC_R_SQUARED 0.721, HEPG2TOX_HILL_SLOPE 1.01, HEPG2TOX_R_SQUARED 0.763, PBLUC_HILL_SLOPE 15.5, PBLUC_R_SQUARED 0.598, read-out: LUCIFERASE INFECTION ASSAY - IC50): 1 µM
19 | Oc1c2n(c(=S)n1-c1ccc(Cl)cc1)CCS2 | > 11.6 µM | IC50 (FFLUC_HILL_SLOPE 3.58, FFLUC_R_SQUARED 0.45, PBLUC_HILL_SLOPE 7.55, PBLUC_R_SQUARED 0.0946, read-out: LUCIFERASE INFECTION ASSAY - IC50): 10.5 µM
20 | O=C(c1oc2ccccc2c1CSc1ccc(Cl)cc1)N1CCCS/C1=N\c1ccccc1 | > 10 µM | IC50 (FFLUC_HILL_SLOPE 3.49, FFLUC_R_SQUARED 0.279, read-out: LUCIFERASE INFECTION ASSAY - IC50): > 10 µM
21 | Cc1c(-c2ccccc2)oc2c(C(=O)NCc3ccc(Cn4cccn4)cc3)cccc2c1=O | > 10 µM | IC50 (FFLUC_HILL_SLOPE 3.81, FFLUC_R_SQUARED 0.0734, PBLUC_HILL_SLOPE 3.95, PBLUC_R_SQUARED 0.349, read-out: LUCIFERASE INFECTION ASSAY - IC50): 7.72 µM
22 | Cc1ccc2oc(-c3ccc(C(C)(C)C)cc3)nc2c1 | 5.53 µM | IC50 (FFLUC_HILL_SLOPE 3.61, FFLUC_R_SQUARED 0.123, HEPG2TOX_HILL_SLOPE 7.09, HEPG2TOX_R_SQUARED 0.0328, PBLUC_HILL_SLOPE 0.728, PBLUC_R_SQUARED 0.843, read-out: LUCIFERASE INFECTION ASSAY - IC50): 0.271 µM
23 | CSc1ccccc1N1C(=O)C=CC1=O | 10.8 µM | IC50 (FFLUC_HILL_SLOPE 3.57, FFLUC_R_SQUARED 0.584, HEPG2TOX_HILL_SLOPE 8.7, HEPG2TOX_R_SQUARED 0.127, PBLUC_HILL_SLOPE 6.46, PBLUC_R_SQUARED 0.572, read-out: LUCIFERASE INFECTION ASSAY - IC50): 7.7 µM
24 | CCCn1c(SCC(=O)Nc2cc(S(=O)(=O)N(CC)c3ccccc3)ccc2Cl)nc2ccccc2c1=O | > 10 µM | IC50 (FFLUC_HILL_SLOPE 3.64, FFLUC_R_SQUARED 0.239, PBLUC_HILL_SLOPE 6.57, PBLUC_R_SQUARED 0.539, read-out: LUCIFERASE INFECTION ASSAY - IC50): 8.45 µM
25 | CC(C)N1C(=O)/C(=N\NC(=S)NC2CCCCC2)c2ccccc21 | > 10 µM | IC50 (FFLUC_HILL_SLOPE 3.74, FFLUC_R_SQUARED 0.413, HEPG2TOX_HILL_SLOPE 6.6, HEPG2TOX_R_SQUARED 0.125, read-out: LUCIFERASE INFECTION ASSAY - IC50): > 10 µM
26 | O=C(CNc1cc(C(F)(F)F)ccc1Oc1ccc(Br)cc1)NCCC1=CCCCC1 | > 10 µM | IC50 (FFLUC_HILL_SLOPE 3.47, FFLUC_R_SQUARED 0.173, PBLUC_HILL_SLOPE 15.8, PBLUC_R_SQUARED 0.057, read-out: LUCIFERASE INFECTION ASSAY - IC50): 9.79 µM
27 | Cc1cc(C)c(C)c(S(=O)(=O)N2CCC(C(=O)Nc3cc(S(=O)(=O)Nc4ccc(Cl)cc4)ccc3N3CCOCC3)CC2)c1C | 3.69 µM | IC50 (FFLUC_HILL_SLOPE 3.74, FFLUC_R_SQUARED 0.802, PBLUC_HILL_SLOPE 15.7, PBLUC_R_SQUARED 0.403, read-out: LUCIFERASE INFECTION ASSAY - IC50): 3.21 µM
28 | CCN(CC)S(=O)(=O)c1cc([N+](=O)[O-])ccc1NN=CC1C(=O)N(c2ccc(C)cc2)C(=O)c2ccccc21 (stereo not given) | > 10 µM | IC50 (FFLUC_HILL_SLOPE 3.56, FFLUC_R_SQUARED 0.6, HEPG2TOX_HILL_SLOPE 2.69, HEPG2TOX_R_SQUARED 0.936, PBLUC_HILL_SLOPE 15.5, PBLUC_R_SQUARED 0.0701, read-out: LUCIFERASE INFECTION ASSAY - IC50): 9.71 µM
29 | O=C(/N=c1\sc(-c2ccccc2)c(-c2ccccc2)n1CCc1ccccc1)c1ccccc1 | > 10 µM | IC50 (FFLUC_HILL_SLOPE 3.75, FFLUC_R_SQUARED 0.66, PBLUC_HILL_SLOPE 10.4, PBLUC_R_SQUARED 0.195, read-out: LUCIFERASE INFECTION ASSAY - IC50): 8.64 µM
30 | C=C(C)CSc1nc2cc(-c3ccc(C)cc3)sc2c(=O)n1Cc1ccccc1 | > 10 µM | IC50 (FFLUC_HILL_SLOPE 3.73, FFLUC_R_SQUARED 0.533, read-out: LUCIFERASE INFECTION ASSAY - IC50): > 10 µM
